Our source for the Ki values is BindingDB's records for doi:10.1074/jbc.271.42.26315 (Bayer, 1996).

Where “and” joins values, the source holds several entries; their conditions need not be identical. Equal entries are not always repeated. Peptide text beside a SMILES is read from it.

Assay [1] concerns the target T1, Neuropeptide Y receptor type 5 (Rattus norvegicus, UniProt Q63634).
T1 sequence (Q63634 whole entry): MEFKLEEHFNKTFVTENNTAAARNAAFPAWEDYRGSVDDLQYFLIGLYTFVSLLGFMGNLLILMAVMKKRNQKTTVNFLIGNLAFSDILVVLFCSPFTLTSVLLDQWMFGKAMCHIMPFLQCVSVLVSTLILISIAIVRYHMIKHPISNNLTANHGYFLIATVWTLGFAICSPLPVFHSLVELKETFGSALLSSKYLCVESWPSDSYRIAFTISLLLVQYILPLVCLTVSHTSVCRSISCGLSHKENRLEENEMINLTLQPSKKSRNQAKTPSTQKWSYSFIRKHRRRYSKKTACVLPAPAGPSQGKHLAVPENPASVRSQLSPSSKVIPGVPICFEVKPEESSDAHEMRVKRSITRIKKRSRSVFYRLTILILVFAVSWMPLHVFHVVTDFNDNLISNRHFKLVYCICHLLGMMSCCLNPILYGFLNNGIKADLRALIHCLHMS

The target of assay [2] is T2, Neuropeptide Y receptor type 5 (Homo sapiens, UniProt Q15761).
T2 sequence (Q15761 whole entry): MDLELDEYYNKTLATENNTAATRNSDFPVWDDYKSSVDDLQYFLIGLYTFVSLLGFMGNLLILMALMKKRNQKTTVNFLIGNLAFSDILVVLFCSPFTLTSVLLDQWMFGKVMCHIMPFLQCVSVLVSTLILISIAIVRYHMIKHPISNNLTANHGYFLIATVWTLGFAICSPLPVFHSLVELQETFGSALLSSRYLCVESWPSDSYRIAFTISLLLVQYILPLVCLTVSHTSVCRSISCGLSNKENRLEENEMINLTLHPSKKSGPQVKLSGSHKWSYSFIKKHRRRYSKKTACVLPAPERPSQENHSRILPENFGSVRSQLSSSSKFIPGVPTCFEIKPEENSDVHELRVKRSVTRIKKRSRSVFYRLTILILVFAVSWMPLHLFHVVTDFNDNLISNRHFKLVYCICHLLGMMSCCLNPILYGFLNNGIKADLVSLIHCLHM

For the compound `N=C(N)NCCCC(NC(=O)C(c1ccccc1)c1ccccc1)C(=O)NCc1ccc(O)cc1` (stereo unspecified) [NSC_5311023], in assay [1], affinity was put at a Ki of 1000 nM. On to `CC[C@H](C)[C@H](NC(=O)[C@H](Cc1ccc(O)cc1)NC(=O)[C@H](Cc1cnc[nH]1)NC(=O)[C@H](CCCN=C(N)N)NC(=O)[C@H](CC(C)C)NC(=O)[C@H](C)NC(=O)[C@@H](N)CO)C(=O)N[C@@H](CC(N)=O)C(=O)N[C@@H](CC(C)C)C(=O)N[C@H](C(=O)N[C@H](C(=O)N[C@@H](CCCN=C(N)N)C(=O)N[C@@H](CCC(N)=O)C(=O)N[C@@H](CCCN=C(N)N)C(=O)N[C@@H](Cc1ccc(O)cc1)C(N)=O)[C@@H](C)O)[C@@H](C)CC` [NPY22-36, rat, human], for which the Ki in assay [1] and in assay [2] was 1000 nM each time. In assay [2], `CC(C)C[C@H](NC(=O)[C@H](CO)NC(=O)[C@H](C)NC(=O)[C@H](Cc1ccc(O)cc1)NC(=O)[C@H](Cc1ccc(O)cc1)NC(=O)[C@H](CCCNC(=N)N)NC(=O)[C@H](CO)NC(=O)[C@H](CC(C)C)NC(=O)[C@H](CCC(=O)O)NC(=O)[C@H](CCC(=O)O)NC(=O)[C@@H]1CCCN1C(=O)[C@@H](N)CO)C(=O)N[C@@H](CCCNC(=N)N)C(=O)N[C@@H](Cc1c[nH]cn1)C(=O)N[C@@H](Cc1ccc(O)cc1)C(=O)N[C@@H](CC(C)C)C(=O)N[C@@H](CC(N)=O)C(=O)N[C@@H](CC(C)C)C(=O)N[C@H](C(=O)N[C@H](C(=O)N[C@@H](CCCNC(=N)N)C(=O)N[C@@H](CCC(N)=O)C(=O)N[C@@H](CCCNC(=N)N)C(=O)N[C@@H](Cc1ccc(O)cc1)C(N)=O)[C@@H](C)O)C(C)C` [PYY 3-36, rat] (H-SPEELSRYYASLRHYLNLVTRQRY-NH2) yielded a Ki of 10 nM. Turning to `CC[C@H](C)[C@H](NC(=O)[C@H](Cc1ccc(O)cc1)NC(=O)[C@H](CCCNC(=N)N)NC(=O)[C@H](CCCNC(=N)N)NC(=O)[C@H](CC(C)C)NC(=O)[C@H](CCC(N)=O)NC(=O)[C@@H](NC(=O)[C@H](CCC(=O)O)NC(=O)[C@H](Cc1ccc(O)cc1)NC(=O)[C@H](CCC(N)=O)NC(=O)[C@H](C)NC(=O)[C@H](CCCNC(=N)N)NC(=O)[C@H](CCC(N)=O)NC(=O)[C@H](CCC(=O)O)NC(=O)[C@H](Cc1c[nH]cn1)NC(=O)[C@@H](NC(=O)[C@H](C)NC(=O)[C@H](Cc1ccc(O)cc1)NC(=O)[C@H](CC(=O)O)NC(=O)CNC(=O)[C@@H]1CCCN1C(=O)[C@H](Cc1ccc(O)cc1)NC(=O)[C@H](CCSC)NC(=O)[C@@H]1CCCN1C(=O)[C@H](CCC(=O)O)NC(=O)[C@H](CC(C)C)NC(=O)[C@@H]1CCCN1C(=O)[C@H](C)N)[C@@H](C)O)[C@@H](C)O)C(=O)N[C@@H](CC(N)=O)C(=O)N[C@H](C(=O)N[C@@H](CC(C)C)C(=O)N[C@H](C(=O)N[C@@H](CCCNC(=N)N)C(=O)N1CCC[C@H]1C(=O)N[C@@H](CCCNC(=N)N)C(=O)N[C@@H](Cc1ccc(O)cc1)C(N)=O)[C@@H](C)O)[C@@H](C)O` [NSC_41735], the Ki was 62 nM and 296 nM in assay [1]; 436 nM in assay [2].

A word on the Ki: it is a measure of affinity in units of concentration, obtained from inhibition or displacement. The low end stands for tighter binding, the high end for weaker binding.
